Measured values as given in patent US9162991B2 (University of Ottawa, priority 2007, dated 2015).
“Also recorded” adds a separate entry of the source. Like-named read-outs stand apart in the source and are kept apart here.

Biological target: recombinant guinea pig liver TGase (Cavia cutleri (Guinea pig), UniProt P08587)
Assay: biochemical
Format: biochemical
Experimental: ENZYME INHIBITION BY COMPOUNDS 14a-c, 14l, 15a, 15d-k, 15m-q, 30a, 30r, 30t, 37a and 38a: For enzymology studies of these compounds, recombinant guinea pig liver TGase was expressed in Escherichia coli and effectively purified (Gillet, S. M. F. G. et al J. N., Prot. Exp. & Purif. 2004, 33, 256).
The mode of inhibition was determined for the representative lead compound 14a through non-linear regression of initial rate data to the Michaelis-Menten equation (FIG. 1).
For the ensuing enzymatic tests, recombinant guinea pig liver TGase was expressed in E. Coli and effectively purified.
Kinetic runs were recorded on a Cary 100 BIO UV-Visible spectrophotometer at 405 nm and 25° C., in a buffer composed of 50 mM CaCl2, 50 μM EDTA and 0.1 M MOPS (pH 7.0). All aqueous solutions were prepared using de-ionized water purified from the Millipore BioCell system. […] Factor XIIIa activity was measured using a coupled-enzyme assay (Day, N.; Keillor, J. W. Anal. Biochem. 1999, 274, 141). Factor XIIIa, was added to a final concentration of 0.89 μg/mL to a pH 8.5 solution (0.1 M Tris-HCl, 5 mM CaCl2 and 10 mM DDT) of 0.5 mM β-NADH, 3.3 mM Na-acetyl-L-lysine methyl ester, 10 mM α-ketoglutaric acid sodium salt and 297 μg/mL glutamate dehydrogenase (GDH).

[1] = Table 1, substituent on the cinnamoyl aromatic group, read-out: IC50 (μM), class symbol
[2] = Table 1, value in brackets, read-out: IC50
[3] = Table 3, influence of the acylated moiety, read-out: IC50 (μM), class symbol

recombinant guinea pig liver TGase, sequence (P08587 whole entry): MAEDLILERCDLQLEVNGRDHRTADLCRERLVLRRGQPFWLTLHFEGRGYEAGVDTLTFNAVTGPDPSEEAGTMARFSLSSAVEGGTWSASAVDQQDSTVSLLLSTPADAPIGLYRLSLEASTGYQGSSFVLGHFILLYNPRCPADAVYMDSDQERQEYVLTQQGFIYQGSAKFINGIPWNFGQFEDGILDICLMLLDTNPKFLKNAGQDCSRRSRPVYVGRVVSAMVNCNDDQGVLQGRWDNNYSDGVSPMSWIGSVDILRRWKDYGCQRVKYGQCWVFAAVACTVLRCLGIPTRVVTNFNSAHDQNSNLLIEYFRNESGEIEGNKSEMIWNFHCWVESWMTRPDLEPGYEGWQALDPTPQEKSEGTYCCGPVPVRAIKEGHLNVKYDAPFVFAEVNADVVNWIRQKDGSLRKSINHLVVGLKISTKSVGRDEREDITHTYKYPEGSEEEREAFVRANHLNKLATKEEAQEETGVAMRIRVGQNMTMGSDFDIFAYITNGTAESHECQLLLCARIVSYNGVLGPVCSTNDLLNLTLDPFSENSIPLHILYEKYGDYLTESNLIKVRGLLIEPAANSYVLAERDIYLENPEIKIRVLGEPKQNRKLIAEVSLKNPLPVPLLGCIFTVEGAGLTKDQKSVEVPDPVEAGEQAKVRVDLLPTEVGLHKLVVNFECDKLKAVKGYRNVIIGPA

Structure (SMILES) | IC50 | TGase inhibitory activity (in words) | IC50 [1] | IC50 [2] | other results
O=C(/C=C/c1ccc([N+](=O)[O-])cc1)c1cn(Cc2ccccc2)nn1 [Compound 4a, (E)-1-(1-benzyl-1H-1,2,3-triazol-4-yl)-3-(4-nitrophenyl)prop-2-en-1-one] | < 20 µM | – | – | – | IC50 (read-out: IC50): 4.3 µM
O=C(/C=C/c1ccc([N+](=O)[O-])cc1)c1cn(Cc2ccc([N+](=O)[O-])cc2)nn1 [Compound 4d, (E)-1-(1-(4-nitrobenzyl)-1H-1,2,3-triazol-4-yl)-3-(4-nitrophenyl)prop-2-en-1-one] | < 20 µM | most efficient inhibitors in the series | – | – | mode of inhibition: competitive inhibition; IC50 (read-out: IC50): 2.1 µM
O=C(c1ccc([N+](=O)[O-])cc1)n1nnc2ccccc21 [Compound 34a, p-Nitrobenzoyl benzotriazolyl amide] | – | – | – | – | IC50 (μM) (Table 2, value in brackets or words): irreversible; mode of inhibition (versus acyl-donor substrate): irreversible inhibitor
O=C(/C=C/c1ccc([N+](=O)[O-])cc1)N1CCCCC1 [Compound 24a, p-Nitrocinnamoyl piperidinyl amide] | > 50 µM | – | – | – | –
O=C(/C=C/c1ccc([N+](=O)[O-])cc1)c1c[nH]nn1 [Compound 4o, (E)-3-(4-nitrophenyl)-1-(1H-1,2,3-triazol-4-yl)prop-2-en-1-one] | 20 to 50 µM | relatively high IC50 | – | – | IC50 (read-out: IC50): 45 µM
COc1cccc(/C=C/C(=O)n2nnc3ccccc32)c1 [Compound 15e, m-Methoxycinnamoyl benzotriazolyl amide] | – | – | > 50 µM | > 100 µM | –
O=C(/C=C/c1ccc([N+](=O)[O-])cc1)c1cn(Cc2cc(C(F)(F)F)cc(C(F)(F)F)c2)nn1 [Compound 4j, (E)-1-(1-(3,5-bis(trifluoromethyl)benzyl)-1H-1,2,3-triazol-4-yl)-3-(4-nitrophenyl)prop-2-en-1-one] | – | activity was lost | – | – | IC50 (Table 6, Huisgen [3+2] cycloaddition products, read-out: IC50 (μM), class symbol): > 50 µM; IC50 (Table 6, value in brackets, read-out: IC50): > 100 µM
O=C(/C=C/c1ccc([N+](=O)[O-])cc1)c1ccccc1 [Compound 31a, reference compound] | – | lack of activity | – | – | –
O=C(Nc1ccc(C=CC(=O)n2nnc3ccccc32)cc1)OCC1c2ccccc2-c2ccccc21 [Compound 15p, p-(9-Fluorenylmethoxycarbonylamino)cinnamoyl benzotriazolyl amide] | – | – | 20 to 50 µM | 25 µM | –
O=C(/C=C/c1ccc([N+](=O)[O-])cc1)c1cn(Cc2c(F)c(F)c(F)c(F)c2F)nn1 [Compound 4i] | > 50 µM | – | – | – | –
O=C(/C=C/C=C/c1ccc([N+](=O)[O-])cc1)c1cccnc1 [Compound 38a, (2E,4E)-5-(4-Nitrophenyl)-1-(pyridine-3-yl)penta-2,4-dien-1-one] | – | Neither of these two extended conjugated compounds showed significant inhibition | – | – | –
CN(Cc1ccccc1)C(=O)/C=C/c1ccc([N+](=O)[O-])cc1 [Compound 27a, p-Nitrocinnamoyl methylbenzyl amide] | – | – | – | – | IC50 [3]: > 50 µM
O=C(/C=C/c1ccc([N+](=O)[O-])cc1)Nc1ccccc1 [Compound 22a, p-Nitrocinnamoyl phenyl amide] | – | – | – | – | IC50 [3]: > 50 µM
O=C(/C=C/c1ccc([N+](=O)[O-])cc1)c1cn(CC2CCCCC2)nn1 [Compound 4f, (E)-1-(1-(cyclohexylmethyl)-1H-1,2,3-triazol-4-yl)-3-(4-nitrophenyl)prop-2-en-1-one] | < 20 µM | – | – | – | loss in potency (fold): 2.5 fold; IC50 (read-out: IC50): 11 µM
O=C(/C=C/c1ccccc1)n1nnc2ccccc21 [Compound 15j, Cinnamoyl benzotriazolyl amide] | – | – | > 50 µM | > 100 µM | –
COc1ccccc1/C=C/C(=O)n1nnc2ccccc21 [Compound 15f, o-Methoxycinnamoyl benzotriazolyl amide] | – | – | > 50 µM | > 100 µM | –
O=C(C=Cc1ccc([N+](=O)[O-])cc1)On1nnc2ccccc21 [Compound 14a, p-Nitrocinnamoyl oxybenzotriazolyl amide] | – | Inhibitory activity was observed | 20 to 50 µM | 43 µM | IC50 [3]: 20 to 50 µM; mode of inhibition (versus acyl-donor substrate): competitive inhibition; also recorded: competitive inhibitor
O=C(C=Cc1cccc([N+](=O)[O-])c1)On1nnc2ccccc21 [Compound 14b, m-Nitrocinnamoyl oxybenzotriazolyl amide] | – | – | 20 to 50 µM | 24 µM | –
O=C(/C=C/c1ccc([N+](=O)[O-])cc1)c1cn(Cc2ccccn2)nn1 [Compound 4e, (E)-3-(4-nitrophenyl)-1-(1-((pyridin-2-yl)methyl)-1H-1,2,3-triazol-4-yl)prop-2-en-1-one] | < 20 µM | lower potency | – | – | IC50 (read-out: IC50): 18 µM
Cc1ccc(/C=C/C(=O)n2nnc3ccccc32)cc1 [Compound 15g, p-Methylcinnamoyl benzotriazolyl amide] | – | – | > 50 µM | > 100 µM | –
O=C(C=Cc1ccc([N+](=O)[O-])cc1)On1nnc2cccnc21 [Compound 16a, p-Nitrocinnamoyl oxyazabenzotriazolyl amide] | – | Inhibitory activity was observed | – | – | IC50 [3]: 20 to 50 µM
O=C(/C=C/c1ccc([N+](=O)[O-])cc1)c1cccnc1 [Compound 30a, (E)-3-(4-nitrophenyl)-1-(pyridin-3-yl)prop-2-en-1-one] | – | as effective as the benzotriazolyl amide inhibitors | 20 to 50 µM | 21 µM | –
COC(=O)c1ccc(/C=C/C(=O)n2nnc3ccccc32)cc1 [Compound 15q, p-(Methoxycarbonyl)cinnamoyl benzotriazolyl amide] | – | – | 20 to 50 µM | 27 µM | –
O=C(/C=C/c1ccc([N+](=O)[O-])cc1)c1cn(Cc2cccc([N+](=O)[O-])c2)nn1 [Compound 4g, (E)-1-(1-(3-nitrobenzyl)-1H-1,2,3-triazol-4-yl)-3-(4-nitrophenyl)prop-2-en-1-one] | – | – | – | – | reduction in potency (fold): 4-7 fold; IC50 (IC50 (μM), Table 6, value in brackets): 9.4 µM; IC50 (IC50 (μM), class symbol, Table 6, Huisgen [3+2] cycloaddition products): < 20 µM
CC(C)(C)OC(=O)/C=C/c1ccc([N+](=O)[O-])cc1 [Compound 20a, p-Nitrocinnamoyl t-butyl ester] | – | little inhibitory activity | – | – | IC50 [3]: > 50 µM
COc1ccc(Cn2cc(C(=O)/C=C/c3ccc([N+](=O)[O-])cc3)nn2)cc1 [Compound 4n, (E)-1-(1-(4-methoxybenzyl)-1H-1,2,3-triazol-4-yl)-3-(4-nitrophenyl)prop-2-en-1-one] | < 20 µM | – | – | – | IC50 (read-out: IC50): 14 µM
O=C(/C=C/c1ccc([N+](=O)[O-])cc1)N1CCc2ccccc21 [Compound 25a, p-Nitrocinnamoyl indolinyl amide] | – | – | – | – | IC50 [3]: > 50 µM
O=C(C=Cc1ccccc1[N+](=O)[O-])On1nnc2ccccc21 [Compound 14c, o-Nitrocinnamoyl oxybenzotriazolyl amide] | – | – | > 50 µM | > 100 µM | –
O=C(/C=C/c1ccc([N+](=O)[O-])cc1)c1cn(C(c2ccccc2)c2ccccc2)nn1 [Compound 4l, (E)-1-(1-benzhydryl-1H-1,2,3-triazol-4-yl)-3-(4-nitrophenyl)prop-2-en-1-one] | > 50 µM | relatively poor activity | – | – | IC50 (read-out: IC50): > 100 µM
